24 compounds from patent US12221459B2, “Cancer treatment with (2,2-bishydroxymethyl) methylenecyclopropane nucleotides” (MEDIVIR AB, priority 2018, dated 2025) can be followed below.

Where two headings read alike, the source gives them in different places.

Broadly, the CC50 is the concentration giving 50% cytotoxicity.

Series [1] concerns THP-1 (human acute monocytic leukemia). The series can be described thus: Leukemia cell line activity assay (Cell Counting Kit-8, 5 days), THP-1. In general terms: Tetrazolium dyes change colour on reduction, which living cells bring about.
Protocol: (§1) Compounds of the invention were evaluated for activity against the leukemia cell lines THP-1, EOL-1 and MV4-11, using the following assay:
(§2) Test compounds were made up to 10 mM stock solution in DMSO
(§3) Leukemia cells (THP-1, EOL-1 and MV4-11) were grown in a cell culture flask 75 cm^2 with approximately 100 ml complete cell medium. The cells were counted using a Scepter-hand held automated cell counter, using 60 μm sensors (Millipore) and suspended in complete cell medium to 2×10^5 cells. 100 μl of the cell suspension were seeded to all wells (2×10^4 cells/well).
(§4) The compounds were tested in twelve concentrations, 10-fold serial dilutions, 50 μM-5×10^−10 μM.
(§5) 100 μl from a compound dilution plate were transferred to the cell assay plate=200 μl/well total volume and incubated for 5 days, at 37° C., 5% CO2 incubator.
(§6) After 5 days, 10l of KIT-8 was added and the culture was incubated for 3-4 hours, at 37° C., 5% CO2 incubator.
(§7) Plate were read in the spectrophotometer at wavelength 450 nm with a reference filter of 620 nm.
(§8) CC50 values are calculated by plotting the degree of inhibition (compared to the vehicle ctrl) against the logarithm of the compound concentration. Result values in the dilution series are fitted to a 4-parameter sigmoidal dose-response curve described by the expression: F(x)=D+(A−D)/(1+(x/C)^B) where: • A=Minimum • B=Slope. • C=Inflection point. The inflection point is defined as the point on the curve where the curvature changes direction or signs. • D=Maximum • F=fraction inhibition
Series [2] relates to MV4-11 cells, human B-myelomonocytic leukemia. Description: Leukemia cell line activity assay (Cell Counting Kit-8, 5 days), MV4-11.
Protocol: as §1, §2, §3, §4, §5, §6, §7, §8
In series [3] the test system is EOL-1 (human). The series can be described thus: Leukemia cell line activity assay (Cell Counting Kit-8, 5 days), EOL-1. The following applies: read-out: EOL.1 CC50.
Protocol: as §1, §2, §3, §4, §5, §6, §7, §8
Setting [4] is: Homo sapiens, THP-1, 120 h, read-out: THP-1 CC50, THP-1 cells, 5 days incubation.
Where [5] appears, read: Homo sapiens, MV4-11, 120 h, read-out: MV4-11 CC50, MV4-11 cells, 5 days incubation.
[6] abbreviates: read-out: THP-1 CC50, THP-1 cells, 5 days incubation.
[7] abbreviates: read-out: MV4-11 CC50, MV4-11 cells, 5 days incubation.

`CCC(CC)COC(=O)[C@H](Cc1ccccc1)N[P@](=O)(OCC1(COC(=O)[C@@H](N)C(C)C)C/C1=C/n1cnc2c(=O)[nH]c(N)nc21)Oc1ccccc1` (stereo partly drawn) [Example 23, ((Z)-2-((2-amino-6-oxo-1,6-dihydro-9H-purin-9-yl)methylene)-1-((((S)-(((S)-1-(2-ethylbutoxy)-1-oxo-3-phenylpropan-2-yl)amino)(phenoxy)phosphoryl)oxy)methyl)cyclopropyl)methyl L-valinate]: the CC50 in series [1] (setting [4]) is 2400 nM; in series [2] (setting [5]) it was 850 nM.

For `CCCC(=O)OCC1(CO[P@@](=O)(N[C@@H](C)C(=O)OCC(CCC)CCC)Oc2ccccc2)C/C1=C/n1ccc(N)nc1=O` (single isomer, unassigned) [Example 45-2], the CC50 in series [1] (setting [6]) was determined as 2000 nM; in series [2] (setting [7]), 2200 nM.

As for `CCC(CC)COC(=O)[C@H](Cc1ccccc1)N[P@](=O)(OCC1(COC(=O)C(C)C)C/C1=C/n1ccc(N)nc1=O)Oc1ccccc1` (stereo partly drawn) [Example 25-2, 2-ethylbutyl((S)-(((Z)-2-((4-amino-2-oxopyrimidin-1 (2H)-yl)methylene)-1-((isobutyryloxy)methyl)cyclopropyl)methoxy)(phenoxy)phosphoryl)-L-phenylalaninate], the CC50 in series [1] (setting [6]) is 410 nM; in series [2] (setting [7]) it was 86 nM; in series [3] (EOL-1 cells, 5 days incubation) it was 100 nM.

For `CCCC(=O)OCC1(CO[P@@](=O)(N[C@@H](C)C(=O)O[C@@H](C)CCC)Oc2ccccc2)C/C1=C/n1cnc2c(=O)[nH]c(N)nc21` (stereo partly drawn) [Example 30-1, ((Z)-2-((2-amino-6-oxo-1,6-dihydro-9H-purin-9-yl)methylene)-1-((((S)-(((S)-1-oxo-1-(((S)-pentan-2-yl)ox)propan-2-yl)amino)(phenoxy)phosphoryl)oxy)methyl)cyclopropyl)methyl butyrate], the CC50 in series [1] (setting [4]) came out at 460 nM; in series [2] (setting [5]) it was 430 nM; in series [3] (Homo sapiens, EOL1, 120 h), 940 nM.

For `CCCC(CCC)COC(=O)[C@H](C)N[P@](=O)(OCC1(COC(=O)C(C)(C)C)C/C1=C/n1cnc2c(=O)[nH]c(N)nc21)Oc1ccccc1` (stereo partly drawn) [Example 38, ((Z)-2-((2-amino-6-oxo-1,6-dihydro-9H-purin-9-yl)methylene)-1-((((S)-(((S)-1-oxo-1-((2-propylpentyl)oxy)propan-2-yl)amino)(phenoxy)phosphoryl)ox)methyl)cyclopropyl)methyl pivalate], the CC50 in series [1] (setting [4]) was found to be 190 nM; in series [2] (setting [5]), 310 nM; in series [3] (Homo sapiens, EOL1, 120 h), 210 nM.

Regarding `CCCC(=O)OC[C@]1(CO[P@@](=O)(N[C@@H](C)C(=O)O[C@@H](C)CCC)Oc2ccc(Br)cc2)C/C1=C/n1cnc2c(=O)[nH]c(N)nc21` [Example 12-1, ((S,Z)-2-((2-Amino-6-oxo-1H-purin-9(6H)-yl)methylene)-1-((((S)-(4-bromophenoxy)(((S)-1-oxo-1-((S)-pentan-2-yloxy)propan-2-yl)amino)phosphoryl)oxy)methyl)cyclopropyl)methyl butyrate], the CC50 in series [1] (setting [4]) came out at 290 nM; in series [3] (Homo sapiens, EOL1, 120 h), 170 nM.

Take `CCCC(=O)OCC1(CO[P@@](=O)(N[C@@H](C)C(=O)OCC(CCC)CCC)Oc2ccccc2)C/C1=C/n1ccc(N)nc1=O` (single isomer, unassigned) [Example 45-1]: the CC50 stood at 190 nM in series [1] (setting [6]); 180 nM in series [2] (setting [7]); 59 nM in series [3] (EOL-1 cells, 5 days incubation).

For the compound `CCCC(CCC)COC(=O)[C@H](C)N[P@](=O)(OCC1(COC(=O)C(C)C)C/C1=C/n1cc(F)c(N)nc1=O)Oc1ccccc1` (single isomer, unassigned) [Example 39-2], the figures for the CC50 in series [1] (setting [4]) and in series [2] (setting [5]) were 600 nM and 2600 nM, respectively.

On to `CCC(CC)COC(=O)[C@H](Cc1ccccc1)N[P@](=O)(OCC1(COC(=O)C(C)C)C/C1=C/n1cnc2c(=O)[nH]c(N)nc21)Oc1ccccc1` (single isomer, unassigned) [Example 20-2], for which the cytotoxic concentration (CC50) in series [1] (setting [4]) was determined as 900 nM; in series [2] (setting [5]), 380 nM; in series [3] (Homo sapiens, EOL1, 120 h), 3600 nM.

On to `CCCC(=O)OCC1(CO[P@@](=O)(N[C@@H](C)C(=O)OCC(CCC)CCC)Oc2ccccc2)C/C1=C/n1ccc(N)nc1=O` (single isomer, unassigned) [Example 32-1], for which the CC50 came out at 190 nM in series [1] (setting [6]); 180 nM in series [2] (setting [7]); 59 nM in series [3] (Homo sapiens, EOL1, 120 h).

Regarding `COC(=O)[C@H](CC(C)C)N[P@](=O)(OCC1(COC(=O)C(C)C)C/C1=C/n1cnc2c(=O)[nH]c(N)nc21)Oc1ccccc1` (single isomer, unassigned) [Example 18-2], the CC50 in series [1] (setting [4]) worked out at 1800 nM; in series [2] (setting [5]) it was 800 nM.

In the case of `CCC[C@H](C)OC(=O)[C@H](C)N[P@](=O)(OC[C@@]1(COC(=O)[C@@H](N)C(C)C)C/C1=C/n1cnc2c(=O)[nH]c(N)nc21)Oc1ccccc1` [Example 15-1, (S)-((S,Z)-2-((2-amino-6-oxo-1H-purin-9(6H)-yl)methylene)-1-((((S)-(((S)-1-oxo-1-((S)-pentan-2-yloxy)propan-2-yl)amino)(phenoxy)phosphoryl)oxy)methyl)cyclopropyl)methyl 2-amino-3-methylbutanoate], the cytotoxic concentration (CC50) in series [1] (setting [4]) came out at 1000 nM.

Regarding `CCCC(CCC)COC(=O)[C@H](C)N[P@](=O)(OCC1(COC(=O)C(C)C)C/C1=C/n1ccc(N)nc1=O)Oc1ccccc1` (single isomer, unassigned) [Example 16-1], the CC50 came out at 350 nM in series [1] (setting [4]) and 190 nM in series [2] (setting [5]).

In the case of `CCC[C@H](C)OC(=O)[C@H](C)N[P@](=O)(OCC1(COC(=O)C(C)C)C/C1=C/n1ccc(N)nc1=O)Oc1ccccc1` (single isomer, unassigned) [Example 28-2], the 50% cytotoxic concentration (CC50) was 880 nM in series [1] (setting [4]) and 1000 nM in series [2] (setting [5]).

With `CCC(CC)COC(=O)C[C@H](N[P@](=O)(OCC1(COC(=O)C(C)C)C/C1=C/n1cnc2c(=O)[nH]c(N)nc21)Oc1ccccc1)C(=O)OCC(CC)CC` (single isomer, unassigned) [Example 35-1], the CC50 in series [1] (setting [4]) stood at 290 nM; in series [2] (setting [5]) it was 180 nM.

On to `CCC[C@H](C)OC(=O)[C@H](C)N[P@](=O)(OC[C@@]1(COC(=O)C(C)C)C/C1=C/n1cnc2c(=O)[nH]c(N)nc21)Oc1ccccc1` [Example 6-2, ((S,Z)-2-((2-amino-6-oxo-1H-purin-9(6H)-yl)methylene)-1-((((S)-(((S)-1-oxo-1-((S)-pentan-2-yloxy)propan-2-yl)amino)(phenoxy)phosphoryl)oxy)methyl)cyclopropyl)methyl isobutyrate], for which the CC50 is 740 nM in series [1] (setting [4]); 430 nM in series [2] (setting [5]); 190 nM in series [3] (Homo sapiens, EOL1, 120 h).

With “(S)-(S)-Pentan-2-yl 2-(((S)-(((S,Z)-1-(acetoxymethyl)-2-((2-amino-6-oxo-1H-purin-9(6H)-yl)methylene)cyclopropyl)methoxy)(4-bromophenoxy)phosphoryl)amino) [Example 8-1]”, the half-maximal cytotoxic concentration (CC50) in series [1] (setting [6]) is 260 nM; in series [3] (EOL-1 cells, 5 days incubation), 340 nM.

With `Nc1nc2c(ncn2/C=C2/CC2(CO)CO)c(=O)[nH]1` [Cyclopropavir, 2,2-bis-(hydroxymethyl) cyclopropylidene methyl guanine, reference compound], the CC50 came out at 5100 nM in series [1] (Homo sapiens, THP-1, 120 h, read-out: THP-1 CC50); 11000 nM in series [2] (Homo sapiens, MV4-11, 120 h, read-out: MV4-11 CC50); 11000 nM in series [3] (Homo sapiens, EOL1, 120 h).

Take `CCCC(=O)OC[C@]1(CO[P@@](=O)(N[C@@H](C)C(=O)OCC(CCC)CCC)Oc2ccccc2)C/C1=C/n1cnc2c(=O)[nH]c(N)nc21` [Example 11-1, ((S,Z)-2-((2-Amino-6-oxo-1H-purin-9(6H)-yl)methylene)-1-((((S)-(((S)-1-oxo-1-((2-propylpentyl)oxy)propan-2-yl)amino)(phenoxy)phosphoryl)oxy)methyl)cyclopropyl)methyl butyrate]: the CC50 is 190 nM in series [1] (setting [4]); 71 nM in series [2] (setting [5]); 140 nM in series [3] (Homo sapiens, EOL1, 120 h).

Turning to `CCCCCCCCCCCCCCCCCC(=O)OCC1(CO[P@@](=O)(N[C@@H](C)C(=O)O[C@@H](C)CCC)Oc2ccccc2)C/C1=C/n1cnc2c(=O)[nH]c(N)nc21` (stereo partly drawn) [Example 24, ((Z)-2-((2-amino-6-oxo-1,6-dihydro-9H-purin-9-yl)methylene)-1-((((S)-(((S)-1-oxo-1-(((S)-pentan-2-yl)oxy)propan-2-yl)amino)(phenoxy)phosphoryl)oxy)methyl)cyclopropyl)methyl stearate], the CC50 is 3800 nM in series [1] (setting [4]) and 2100 nM in series [2] (setting [5]).

As for `CCCC(CCC)COC(=O)[C@H](C)N[P@](=O)(OC[C@@]1(COC(C)=O)C/C1=C/n1cnc2c(=O)[nH]c(N)nc21)Oc1ccccc1` [Example 13-1, (S)-2-propylpentyl 2-(((S)-(((S,Z)-1-(acetoxymethyl)-2-((2-amino-6-oxo-1H-purin-9(6H)-yl)methylene)cyclopropyl)methoxy)(phenoxy)phosphoryl)amino)propanoate], the values for the CC50 in series [1] (setting [4]) and in series [2] (setting [5]) were 870 nM and 1100 nM, respectively.

Take `CCCC(=O)OCC1(CO[P@@](=O)(N[C@@H](C)C(=O)OCC(CCC)CCC)Oc2ccccc2)C/C1=C/n1cc(F)c(N)nc1=O` (stereo partly drawn) [Example 40, ((Z)-2-((4-amino-5-fluoro-2-oxopyrimidin-1(2H)-yl)methylene)-1-((((S)-(((S)-1-oxo-1-((2-propylpentyl)oxy)propan-2-yl)amino)(phenoxy)phosphoryl)oxy)methyl)cyclopropyl)methyl butyrate]: the CC50 in series [2] (setting [5]) worked out at 3100 nM.

Turning to `CCC(CC)COC(=O)[C@H](CC(C)C)N[P@](=O)(OCC1(COC(=O)C(C)C)C/C1=C/n1cnc2c(=O)[nH]c(N)nc21)Oc1ccccc1` (single isomer, unassigned) [Example 21-2], the CC50 amounted to 390 nM in series [1] (setting [4]) and 510 nM in series [2] (setting [5]).

As to `CCCC(=O)OCC1(CO[P@@](=O)(N[C@@H](C)C(=O)O[C@@H](C)CCC)Oc2ccccc2)C/C1=C/n1ccc(N)nc1=O` (single isomer, unassigned) [Example 29-1], the figures for the CC50 in series [1] (setting [4]) and in series [2] (setting [5]) were 710 nM and 1200 nM, respectively.
